Patent US20240158446A1, “CYCLIC COMPOUND HAVING SELECTIVE INHIBITORY ACTION ON KRAS OVER HRAS AND NRAS” (CHUGAI SEIYAKU KABUSHIKI KAISHA, priority 2021, published 2024)
Where two headings read alike, the source gives them in different places. Where a SMILES comes first, the peptide text is derived from it. Bridges are numbered along the chain shown (N, C = ends). [ ]: non-standard residue; d: D form. The star is where a group is joined. hPhe(3-Cl-4-CF3) = N[C@@H](CCc1ccc(C(F)(F)F)c(Cl)c1)C(=O)O; NPrPhe(4-CF3) = CCCN[C@@H](Cc1ccc(C(F)(F)F)cc1)C(=O)O; NMeGly(cPent) = CN[C@H](C(=O)O)C1CCCC1; Hyp = O=C(O)[C@@H]1C[C@@H](O)CN1; NMeD = CN[C@@H](CC(=O)O)C(=O)O; NMeL = CN[C@@H](CC(C)C)C(=O)O; Morpholide = C1CN(*)CCO1; Ac5c = NC1(C(=O)O)CCCC1; Ac4c = NC1(C(=O)O)CCC1; Sar = CNCC(=O)O

Legend:
[1] = target: GDP-bound NRAS wild-type protein (Homo sapiens, UniProt P01111); assay: Binding to NRAS by surface plasmon resonance (SPR), Single Cycle Kinetics; details: for NRAS/KRAS (ratio of KD value for NRAS to KD value for KRAS) / NRAS/KRAS (ratio of KD value with respect to NRAS to KD value with respect to KRAS): SPR, GDP-bound NRAS wild-type protein vs GDP-bound KRAS wild-type protein; for NRAS/KRAS (ratio of KD value with respect to GDP-bound NRAS wild-type protein to KD value with respect to KRAS): SPR KD ratio NRAS/KRAS, class symbols
[2] = target: GDP-bound HRAS wild-type protein (Homo sapiens, UniProt P01112); assay: Binding to HRAS by surface plasmon resonance (SPR), Single Cycle Kinetics; details: for HRAS/KRAS (ratio of KD value for HRAS to KD value for KRAS) / HRAS/KRAS (ratio of KD value with respect to HRAS to KD value with respect to KRAS): SPR, GDP-bound HRAS wild-type protein vs GDP-bound KRAS wild-type protein; for HRAS/KRAS (ratio of KD value with respect to GDP-bound HRAS wild-type protein to KD value with respect to KRAS): SPR KD ratio HRAS/KRAS, class symbols
[3] = target: GDP-bound KRAS wild-type protein (Homo sapiens, UniProt P01116); assay: Binding to KRAS by surface plasmon resonance (SPR), Single Cycle Kinetics; details: GDP-bound KRAS wild-type protein, read-out: KRAS KD
[4] = SPR, Single Cycle Kinetics, 1:1 binding model
[5] = SPR Single Cycle Kinetics, 1:1 binding model

Sequence of GDP-bound NRAS wild-type protein (P01111 whole entry): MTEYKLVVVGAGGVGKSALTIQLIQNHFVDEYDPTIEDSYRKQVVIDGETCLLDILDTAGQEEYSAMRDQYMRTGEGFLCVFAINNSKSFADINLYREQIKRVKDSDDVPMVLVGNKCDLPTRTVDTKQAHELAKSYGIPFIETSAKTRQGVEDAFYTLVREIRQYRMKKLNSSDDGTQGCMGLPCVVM
Sequence of GDP-bound KRAS wild-type protein (P01116 whole entry): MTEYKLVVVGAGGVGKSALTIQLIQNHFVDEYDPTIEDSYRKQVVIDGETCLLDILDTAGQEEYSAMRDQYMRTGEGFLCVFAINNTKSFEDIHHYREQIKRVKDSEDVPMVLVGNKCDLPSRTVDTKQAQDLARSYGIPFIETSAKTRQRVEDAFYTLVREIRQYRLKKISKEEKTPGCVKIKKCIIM
Sequence of GDP-bound HRAS wild-type protein (P01112 whole entry): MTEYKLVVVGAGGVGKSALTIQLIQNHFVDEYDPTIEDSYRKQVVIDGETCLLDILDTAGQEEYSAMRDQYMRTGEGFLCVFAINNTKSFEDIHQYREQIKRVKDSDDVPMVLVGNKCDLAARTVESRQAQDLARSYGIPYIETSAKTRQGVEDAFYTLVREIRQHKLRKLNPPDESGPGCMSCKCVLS

| Kd ([3]; SPR, Single Cycle Kinetics) | Kd [3, 5] | Compound | NRAS/KRAS (ratio of KD value for NRAS to KD value for KRAS) [1] | HRAS/KRAS (ratio of KD value for HRAS to KD value for KRAS) [2] | other results |
| --- | --- | --- | --- | --- | --- |
| 0.19 nM | – | CCCN(C)C(=O)[C@@H]1CC(=O)N(C)[C@@H](COCC)C(=O)N[C@@H]([C@@H](C)CC)C(=O)N(C)CC(=O)N(C)[C@H]2C/C=C\CCN(C2=O)[C@@H](Cc2ccc(C(F)(F)F)cc2)C(=O)N(C)CC(=O)N[C@@H](CCc2cc(F)c(C(F)(F)F)c(F)c2)C(=O)N2C[C@@H](C)C[C@H]2C(=O)NC2(CC(C)(C)C2)C(=O)N(C)[C@@H](C2CCCC2)C(=O)N1C [PP2041] | A (a compound having 10 or more and less than 20 is denoted as A) | A (a compound having 10 or more and less than 20 is denoted as A) | – |
| – | – | CCC[C@H]1C(=O)N[C@@H]([C@@H](C)CC)C(=O)N(C)CC(=O)N(C)[C@H]2C/C=C\CCN(C2=O)[C@@H](Cc2ccc(C(F)(F)F)cc2)C(=O)N(C)CC(=O)N[C@@H](CCc2cc(F)c(C(F)(F)F)c(F)c2)C(=O)N2C[C@H](OCC)C[C@H]2C(=O)NC2(CCC2)C(=O)N(C)[C@@H](C2CCCC2)C(=O)N(C)[C@H](C(=O)N(CC)CC)CC(=O)N1C [PP1310, (2S,8S,12R,14S,20S,23S,27S,30S,36S,38Z)-20-cyclopentyl-8-[2-[3,5-difluoro-4-(trifluoromethyl)phenyl]ethyl]-12-ethoxy-N,N-diethyl-4,19,22,26,32,35-hexamethyl-30-[(1S)-1-methylpropyl]-3,6,9,15,18,21,25,28,31,34,42-undecaoxo-27-propyl-2-[[4-(trifluoromethyl)phenyl]methyl]spiro[1,4,7,10,16,19,22,26,29,32,35-undecazatricyclo[34.5.1.0^10,14]dotetracont-38-ene-17,1′-cyclobutane]-23-carboxamide] | – | – | NRAS/KRAS (ratio of KD value for NRAS to KD value for KRAS) ([1]; KD ratio class): AA (a compound having 20 or more is denoted as AA); HRAS/KRAS (ratio of KD value for HRAS to KD value for KRAS) ([2]; KD ratio class): A (a compound having 10 or more and less than 20 is denoted as A); Kd [3, 4]: 0.13 nM |
| 0.07 nM | – | CCO[C@@H]1C[C@H]2C(=O)NC3(CCC3)C(=O)N(C)[C@@H](C3CCCC3)C(=O)N(C)[C@H](C(=O)N(C)C)CC(=O)N(C)[C@@H](CC(C)(C)C)C(=O)N[C@@H]([C@@H](C)CC)C(=O)N(C)CC(=O)N(C)[C@H]3C/C=C\CCN(C3=O)[C@@H](Cc3ccc(C(F)(F)F)cc3)C(=O)N(C)CC(=O)N[C@@H](CCc3cc(F)c(C(F)(F)F)c(F)c3)C(=O)N2C1 [PP1117, (2S,8S,12R,14S,20S,23S,27S,30S,36S,38Z)-20-cyclopentyl-8-[2-[3,5-difluoro-4-(trifluoromethyl)phenyl]ethyl]-27-(2,2-dimethylpropyl)-12-ethoxy-N,N,4,19,22,26,32,35-octamethyl-30-[(1S)-1-methylpropyl]-3,6,9,15,18,21,25,28,31,34,42-undecaoxo-2-[[4-(trifluoromethyl)phenyl]methyl]spiro[1,4,7,10,16,19,22,26,29,32,35-undecazatricyclo[34.5.1.0^10,14]dotetracont-38-ene-17,1′-cyclobutane]-23-carboxamide] | A (a compound having 10 or more and less than 20 is denoted as A) | A (a compound having 10 or more and less than 20 is denoted as A) | – |
| 2 nM | – | CCO[C@@H]1C[C@H]2C(=O)NC3(CCC3)C(=O)N(C)[C@@H](C3CCCC3)C(=O)N(C)[C@H](C(=O)N(C)C)CC(=O)N(C)[C@@H](Cc3ccc(Cl)cc3)C(=O)N[C@@H]([C@@H](C)CC)C(=O)N(C)CC(=O)N(C)[C@H]3CCCCCN(C3=O)[C@@H](Cc3ccc(C(F)(F)F)cc3)C(=O)N(C)CC(=O)N[C@@H](CCc3cc(F)c(C(F)(F)F)c(F)c3)C(=O)N2C1 [PP0940] | B (a compound having 3 or more and less than 10 is denoted as B) | C (A compound having a KD ratio of 0.1 or more and less than 3 is denoted as C) | – |
| – | – | CCO[C@@H]1C[C@H]2C(=O)NC3(CCC3)C(=O)N(C)[C@@H](C3CCCC3)C(=O)N(C)[C@H](C(=O)N(C)CCOC)CC(=O)N(C)[C@@H](CC(C)C)C(=O)N[C@@H]([C@@H](C)CC)C(=O)N(C)CC(=O)N(C)[C@H]3C/C=C\CCN(C3=O)[C@@H](Cc3ccc(C(F)(F)F)cc3)C(=O)N(C)CC(=O)N[C@@H](CCc3ccc(C(F)(F)F)c(OC)c3)C(=O)N2C1 [PP1324, (2S,8S,12R,14S,20S,23S,27S,30S,36S,38Z)-20-cyclopentyl-12-ethoxy-27-isobutyl-N-(2-methoxyethyl)-8-[2-[3-methoxy-4-(trifluoromethyl)phenyl]ethyl]-N,4,19,22,26,32,35-heptamethyl-30-[(1S)-1-methylpropyl]-3,6,9,15,18,21,25,28,31,34,42-undecaoxo-2-[[4-(trifluoromethyl)phenyl]methyl]spiro[1,4,7,10,16,19,22,26,29,32,35-undecazatricyclo[34.5.1.0^10,14]dotetracont-38-ene-17,1′-cyclobutane]-23-carboxamide] | – | – | NRAS/KRAS (ratio of KD value for NRAS to KD value for KRAS) ([1]; KD ratio class): A (a compound having 10 or more and less than 20 is denoted as A); HRAS/KRAS (ratio of KD value for HRAS to KD value for KRAS) ([2]; KD ratio class): A (a compound having 10 or more and less than 20 is denoted as A); Kd [3, 4]: 0.093 nM |
| – | 0.027 nM | CC[C@H](C)[C@@H]1NC(=O)[C@H](CC(C)C)N(C)C(=O)C[C@@H](C(=O)N2CCOCC2)N(C)C(=O)[C@H](C2CCCC2)N(C)C(=O)C2(CCC2)NC(=O)[C@@H]2C[C@@H](C(F)(F)F)CN2C(=O)[C@H](CCc2cc(F)c(C(F)(F)F)c(F)c2)NC(=O)CN(C)C(=O)[C@H](Cc2ccc(C(F)(F)F)cc2)N2CCCC[C@@H](C2=O)N(C)C(=O)CN(C)C1=O [PP0809] | – | – | NRAS/KRAS (ratio of KD value with respect to NRAS to KD value with respect to KRAS) [1]: B (a compound having 3 or more and less than 10 is denoted as B); HRAS/KRAS (ratio of KD value with respect to HRAS to KD value with respect to KRAS) [2]: B (a compound having 3 or more and less than 10 is denoted as B) |
| – | 0.85 nM | CCC[C@H]1C(=O)N[C@@H]([C@@H](C)CC)C(=O)N(C)CC(=O)N(C)[C@H]2C/C=C\CCN(C2=O)[C@@H](Cc2ccc(C(F)(F)F)cc2)C(=O)N(C)CC(=O)N[C@@H](CCc2ccc(C(F)(F)F)c(Cl)c2)C(=O)N2CCCCC[C@H]2C(=O)NC2(CC(C)(C)C2)C(=O)N(C)[C@@H](C(CC)CC)C(=O)N(C)[C@H](C(=O)N(C)C)CC(=O)N1C [PP2964] | – | – | NRAS/KRAS (ratio of KD value with respect to GDP-bound NRAS wild-type protein to KD value with respect to KRAS) [1]: AA (a compound having 20 or more is denoted as AA); HRAS/KRAS (ratio of KD value with respect to GDP-bound HRAS wild-type protein to KD value with respect to KRAS) [2]: A (a compound having 10 or more and less than 20 is denoted as A) |
| – | 0.74 nM | CCCN1C(=O)CN(C)C(=O)CNC(=O)[C@H]([C@@H](C)CC)NC(=O)[C@H](CC(C)C)N(C)C(=O)C[C@@H](C(=O)N2CCOCC2)NC(=O)[C@H](C2CCCC2)N(C)C(=O)C2(CCCC2)NC(=O)[C@@H]2C[C@@H](OCC)CN2C(=O)[C@H](CCc2ccc(C(F)(F)F)c(Cl)c2)NC(=O)CN(C)C(=O)[C@@H]1Cc1ccc(C(F)(F)F)cc1 [PP0329] ([NMeL]IG[Sar][NPrPhe(4-CF3)][Sar][hPhe(3-Cl-4-CF3)][Hyp](Et)[Ac5c][NMeGly(cPent)]D-Morpholide; lactam N-11) | B (a compound having 3 or more and less than 10 is denoted as B) | C (A compound having a KD ratio of 0.1 or more and less than 3 is denoted as C) | – |
| 0.55 nM | – | CCO[C@@H]1C[C@H]2C(=O)NC3(CC(C)(C)C3)C(=O)N(C)[C@@H](C(CC)CC)C(=O)N(C)[C@H](C(=O)N(C)C)CC(=O)N(C)[C@@H](C(C)C)C(=O)N[C@@H]([C@@H](C)CC)C(=O)N(C)CC(=O)N(C)[C@H]3C/C=C\CCN(C3=O)[C@@H](Cc3ccc(C)cc3)C(=O)N(C)CC(=O)N[C@@H](CCc3ccc(C(F)(F)F)c(OC)c3)C(=O)N2C1 [PP2173] | A (a compound having 10 or more and less than 20 is denoted as A) | A (a compound having 10 or more and less than 20 is denoted as A) | – |
| – | 0.39 nM | CCC(CC)[C@H]1C(=O)N(C)[C@H](C(=O)N(C)C)CC(=O)N(C)[C@@H](COC)C(=O)N[C@@H]([C@@H](C)CC)C(=O)N(C)CC(=O)N(C)[C@H]2C/C=C\CCN(C2=O)[C@@H](Cc2ccc(C)cc2)C(=O)N(C)CC(=O)N[C@@H](CCc2cc(F)c(C(F)(F)F)c(F)c2)C(=O)N2CC3(CC3)C[C@H]2C(=O)NC2(CC(C)(C)C2)C(=O)N1C [PP2963] | – | – | NRAS/KRAS (ratio of KD value with respect to GDP-bound NRAS wild-type protein to KD value with respect to KRAS) [1]: AA (a compound having 20 or more is denoted as AA); HRAS/KRAS (ratio of KD value with respect to GDP-bound HRAS wild-type protein to KD value with respect to KRAS) [2]: A (a compound having 10 or more and less than 20 is denoted as A) |
| – | 0.074 nM | CCCN1C(=O)CN(C)C(=O)CNC(=O)[C@H]([C@@H](C)CC)NC(=O)[C@H](CC(C)C)N(C)C(=O)C[C@@H](C(=O)N(C)C)N(C)C(=O)[C@H](C2CCCC2)N(C)C(=O)C2(CCC2)NC(=O)[C@@H]2CCCN2C(=O)[C@H](CCc2ccc(C(F)(F)F)c(Cl)c2)NC(=O)CN(C)C(=O)[C@@H]1Cc1ccc(C(F)(F)F)cc1 [PP0418] ([NMeL]IG[Sar][NPrPhe(4-CF3)][Sar][hPhe(3-Cl-4-CF3)]P[Ac4c][NMeGly(cPent)][NMeD]-NMe2; lactam N-11) | – | – | NRAS/KRAS (ratio of KD value with respect to NRAS to KD value with respect to KRAS) [1]: B (a compound having 3 or more and less than 10 is denoted as B); HRAS/KRAS (ratio of KD value with respect to HRAS to KD value with respect to KRAS) [2]: C (A compound having a KD ratio of 0.1 or more and less than 3 is denoted as C) |
